Laboratory results from patent publication US7732618B2, “Benzimidazole acetic acids exhibiting CRTH2 receptor antagonism and uses thereof” (Wyeth, priority 2004, dated 2010).

Assays:
human CRTH2 [1] = target: T1, human CRTH2 (Homo sapiens, UniProt Q9Y5Y4); experiment: CRTH-2 binding assay (scintillation proximity assay, inhibition of 3H-PGD2 binding); parameters: expressed in transfected cells; host or cells: 293EBNA-hCRTH2 cells (membrane preparation); settings: membranes from 293EBNA-hCRTH2 cells, 3H-PGD2 3.6 nM; Ki calculated from IC50
T1 sequence (Q9Y5Y4 1-395): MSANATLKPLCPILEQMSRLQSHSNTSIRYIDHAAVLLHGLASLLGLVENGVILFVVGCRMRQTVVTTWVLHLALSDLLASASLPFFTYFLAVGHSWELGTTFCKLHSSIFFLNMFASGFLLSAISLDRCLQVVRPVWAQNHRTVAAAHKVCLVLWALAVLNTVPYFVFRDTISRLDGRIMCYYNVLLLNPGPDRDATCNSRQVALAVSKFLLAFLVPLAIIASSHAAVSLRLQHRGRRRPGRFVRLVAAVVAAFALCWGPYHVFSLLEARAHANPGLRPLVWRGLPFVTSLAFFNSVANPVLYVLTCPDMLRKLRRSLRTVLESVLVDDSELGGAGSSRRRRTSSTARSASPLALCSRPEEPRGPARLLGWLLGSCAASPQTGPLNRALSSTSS
Method: A CRTH2 binding assay was developed to measure the ability of compounds to inhibit the binding of PGD2 to human CRTH2 using a scintillation proximity assay.
Membranes containing hCRTH2 receptors were prepared from 293EBNA-hCRTH2 cells (a 293EBNA cell line stably expressing human CRTH2). The cells were grown to confluency, harvested and washed with PBS. The cells were resuspended in 10 mM Hepes pH 7.4, 1 mM EDTA and protease inhibitors and incubated for 30 min on ice. The cells were homogenized and centrifuged for 10 min at 1000×g. The supernate was centrifuged for 30 min at 100,000×g and the membrane pellet was then resuspended in 10 mM Hepes pH 7.4 and 1 mM EDTA. The protein concentration of the membrane preparation was determined by Bradford assay (Bio-Rad).
The ability of compounds to inhibit the interaction of PGD2 to human CRTH2 was determined at seven compound concentrations. Compounds were serially diluted in DMSO then diluted into CRTH2 buffer (10 mM Hepes pH 7.4, 1 mM EDTA, 10 mM MnCl2) to six times the final desired concentration. 20 μL of the diluted compounds were transferred into non-surface binding 96-well plates (Corning). Each concentration was done in triplicate. In addition to test compounds, each plate contained 12 control wells. Six of these wells contained 20 μL of CRTH2 buffer. These wells were used to measure total binding. Six wells contained 20 μL of CRTH2 buffer plus 1.5 mM indomethacin. These wells were used to measure non-specific binding. Next, 293EBNA-hCRTH2 membranes were resuspended in CRTH2 buffer with glycerol (10 mM Hepes pH 7.4, 1 mM EDTA, 10 mM MnCl2, 25% glycerol) so that the final concentration was approximately 20 μg/100 μL. Polylysine-coated yttrium silicate SPA beads (Amersham) were added to the membrane mix to a concentration of 0.4 mg/100 μL and finally ^3H-PGD2 was added to the membrane/SPA bead mix to 3.6 nM. 100 μL of the membrane/SPA bead/^3H-PGD2 mix was added to each well of the non-surface binding plates containing the diluted compound or controls. The plates were incubated for 2 hours at room temperature with shaking and then the plates were counted on a Microbeta scintillation counter (Perkin Elmer) for 1 min per well.
IC50 values were determined from the experimental results by nonlinear regression using Prism 4.0 software. The IC50 values were then used in conjunction with the Kd for hCRTH2 and the ^3H-PGD2 concentration used in the experiment to calculate the Ki for each compound.

human CRTH2 [2] = target: T1, human CRTH2; experiment: CRTH2 fluorescent imaging assay (intracellular calcium); type: cell-based; parameters: expressed in transfected cells; host or cells: HEK 293EBNA-hCRTH2 cells or HT1080-hCRTH2 cells; settings: for IC50: antagonism of PGD2-induced calcium increase, HEK 293EBNA-hCRTH2 or HT1080-hCRTH2 cells, read-out: RAGE hCRTH2 IC50; for approximate EC75 for PGD2: calcium response
Method: The ability of the disclosed compounds to act as agonists for the hCRTH2 receptor was determined by their ability to cause increases in intracellular calcium via binding to the CRTH2 receptor.
Assays were performed on HEK 293EBNA-hCRTH2 cells that had been grown in DMEM media containing 10% FBS, […] puromycin and 1% penicillin/streptomycin/glutamine (PSG) at 37° C. in 5% CO2 or on HT1080-hCRTH2 cells (a HT1080 cell line stably expressing human CRTH2) that had been grown in alphaMEM media containing 10% FBS, 500 μg/ml hygromycin, 200 nM methotrexate and 1% PSG at 37° C. in 5% CO2.
For the assay, HEK 293EBNA-hCRTH2 cells or HT1080-hCRTH2 cells were grown to approximately 90% confluency and then dislodged from the plate with Trypsin-EDTA, resuspended in DMEM media, seeded in 384 well plates at 2×10^4 cells per well and incubated overnight at 37° C. The cells were loaded with a calcium sensing dye by removing the growth media and replacing it with 30 μL of dye loading Ringer's buffer (136 mM […], 5.4 mM D-Glucose, 20 mM Hepes pH 7.4, 2.1 mM MgCl2, 0.8 mM CaCl2, 0.2% BSA with 1× Calcium3Dye (Molecular Devices) and 2.5 mM Probenecid (Sigma)) per well. The cells were incubated at 37° C. for 1 hour to allow the dye to enter the cells. Compounds were serially diluted in DMSO and then diluted to 4× their final concentration with Ringer's buffer. The compounds were added to a 384 well plate in quadruplicate. In addition to test compounds, several wells contained Ringer's buffer with DMSO. These wells serve as control wells. 10 μL was transferred from compound/control plate to the plate containing cells loaded with dye by a fluorescent imaging plate reader (Molecular Devices). The fluorescence was measured every 4 seconds for 4 minutes. These measurements indicated the level of intracellular calcium. Increases in fluorescence relative to wells containing buffer only indicated an agonist effect of the compound. Measurement at various compound concentrations allowed one to determine the EC50 for these compounds. Following the 4 minute incubation with compound, 20 μL of Ringer's buffer with either 10 nM or 500 nM PGD2 (approximate EC75 for PGD2 in HEK 293EBNA-hCRTH2 cells and HT1080-hCRTH2 cells, respectively) was added to the wells. Inhibition by the compounds of the calcium response due to antagonism of PGD2 action on CRTH2 is reflected by a decrease in fluorescent signal relative to wells containing no compound. The fluorescence was measured every 2 seconds for 10 seconds before addition of PGD2 and every 2 seconds for 110 seconds following addition. Measurement at various compound concentrations allowed one to determine the IC50 for the compounds. EC50 and IC50 values were determined from the experimental results by nonlinear regression using the Prism 4.0 software.

Compound | Ki (human CRTH2 [1]) | IC50 (human CRTH2 [2]) | approximate EC75 for PGD2 (human CRTH2 [2]; HEK 293EBNA-hCRTH2 cells) | approximate EC75 for PGD2 (human CRTH2 [2]; HT1080-hCRTH2 cells)
CCCc1nc2cc(N(Cc3ccc(Cl)cc3)S(=O)(=O)c3ccc(F)cc3)ccc2n1CC(=O)O [Example 43, {5-[(4-Chloro-benzyl)-(4-fluoro-benzenesulfonyl)-amino]-2-propyl-benzoimidazol-1-yl}-acetic acid] | < 100 nM | 51 nM | – | –
CCCc1nc2cc(N(C3CCCCC3)S(=O)(=O)c3ccc(F)cc3)ccc2n1CC(=O)O [Example 46, {5-[(Cyclohexyl)-(4-fluoro-benzenesulfonyl)-amino]-2-propyl-benzoimidazol-1-yl}-acetic acid] | < 1000 nM | 375 nM | – | –
CCCc1nc2cc(N(CCOc3ccc(Cl)cc3)S(=O)(=O)c3ccc(F)cc3)ccc2n1CC(=O)O [Example 47, {5-[[2-(4-Chloro-phenoxy)-ethyl]-(4-fluoro-benzenesulfonyl)-amino]-2-propyl-benzoimidazol-1-yl}-acetic acid] | < 100 nM | 22 nM | – | –
CCCc1nc2cc(N(CCCOc3ccccc3)S(=O)(=O)c3ccc(F)cc3)ccc2n1CC(=O)O [Example 49, {5-[(4-Fluoro-benzenesulfonyl)-(3-phenoxy-propyl)-amino]-2-propyl-benzoimidazol-1-yl}-acetic acid] | < 100 nM | 47 nM | – | –
CCCc1nc2cc(N(Cc3ccccc3)C(=O)c3ccc(Cl)cc3)ccc2n1CC(=O)O [Example 63, {5-[Benzyl-(4-chloro-benzoyl)-amino]-2-propyl-benzoimidazol-1-yl}-acetic acid] | < 1000 nM | – | – | –
CCCc1nc2cc(N(Cc3ccccc3)C(=O)c3ccccc3F)ccc2n1CC(=O)O [Example 64, {5-[Benzyl-(2-fluoro-benzoyl)-amino]-2-propyl-benzoimidazol-1-yl}-acetic acid] | > 10000 nM | – | – | –
CCCc1nc2cc(N(Cc3ccccc3)C(=O)c3cccc(F)c3)ccc2n1CC(=O)O [Example 65, {5-[Benzyl-(3-fluoro-benzoyl)-amino]-2-propyl-benzoimidazol-1-yl}-acetic acid] | < 10000 nM | – | – | –
CCCCC[C@H](O)/C=C/[C@H]1C(=O)C[C@H](O)[C@@H]1C/C=C\CCCC(=O)O [PGD2, prostaglandin D2, reference compound] | – | – | ~10 nM | ~500 nM

Continued, in another order:

Ki (human CRTH2 [1]) | IC50 (human CRTH2 [2]) | Compound | approximate EC75 for PGD2 (human CRTH2 [2]; HEK 293EBNA-hCRTH2 cells) | approximate EC75 for PGD2 (human CRTH2 [2]; HT1080-hCRTH2 cells)
< 1000 nM | – | CCCc1nc2cc(N(Cc3ccccc3)C(=O)c3ccc(F)cc3)ccc2n1CC(=O)O [Example 66, {5-[Benzyl-(4-fluoro-benzoyl)-amino]-2-propyl-benzoimidazol-1-yl}-acetic acid] | – | –
< 1000 nM | – | CCCc1nc2cc(N(Cc3ccccc3)C(=O)c3ccc(F)c(F)c3)ccc2n1CC(=O)O [Example 67, {5-[Benzyl-(3,4-difluoro-benzoyl)-amino]-2-propyl-benzoimidazol-1-yl}-acetic acid] | – | –
< 10000 nM | – | CCCc1nc2cc(N(Cc3ccccc3)C(=O)c3c(F)cccc3F)ccc2n1CC(=O)O [Example 68, {5-[Benzyl-(2,6-difluoro-benzoyl)-amino]-2-propyl-benzoimidazol-1-yl}-acetic acid] | – | –
< 100 nM | – | CCCc1nc2cc(N(Cc3ccccc3)C(=O)c3sccc3C)ccc2n1CC(=O)O [Example 69, {5-[Benzyl-(3-methyl-thiophene-2-carbonyl)-amino]-2-propyl-benzoimidazol-1-yl}-acetic acid] | – | –
< 100 nM | 7 nM | CCCc1nc2cc(N(Cc3ccccc3)C(=O)c3cccs3)ccc2n1CC(=O)O [Example 70, {5-[Benzyl-(thiophene-2-carbonyl)-amino]-2-propyl-benzoimidazol-1-yl}-acetic acid] | – | –
